How the values were obtained:
[1] = system: eosinophils; assay: PAF-induced eosinophil chemotaxis (blind well-chamber technique); assay type: cell-based, human; conditions: 10 μM desloratadine; 1 μM PAF; eosinophils from patients with allergic rhinitis or allergic asthma; P<0.02
Excerpt: (§1) Eosinophils were isolated and purified (>99% pure and >98% viable) from the blood of patients with allergic rhinitis or allergic asthma; a 2-week washout preceded blood collection.

[2] = system: eosinophils / human umbilical endothelial cells (HUVECs); assay: TNFα-induced adhesion of 51Cr-labeled eosinophils to HUVECs; assay type: cell-based; conditions: 10 μM desloratadine; TNFA; P<0.02
Excerpt: as §1

[3] = stability of free base versus acid addition salt; assay type: physicochemical; conditions: free base vs acid addition salt
[4] = system: rhinitis due to pollen allergy; conditions: given over a two week period; patients with rhinitis due to pollen allergy; cited from earlier work

Compound | maximum attenuation of PAF-induced eosinophil chemotaxis [1] | maximum attenuation of TNFα-induced eosinophil adhesion to HUVECs [2] | stability as the free base compared with an acid addition salt [3] | ICAM-1 expression on nasal epithelial cells [4] | eosinophil counts [4] | rhinitis symptoms [4]
Clc1ccc2c(c1)CCc1cccnc1C2=C1CCNCC1 [Desloratadine, desloratadine] | 36%±8% | 27%±5% | more stable as the free base | – | – | –
O=C(O)COCCN1CCN(C(c2ccccc2)c2ccc(Cl)cc2)CC1 (stereo not drawn) [cetirizine] | – | – | – | reduced | reduced | reduced
CCOC(=O)N1CCC(=C2c3ccc(Cl)cc3CCc3cccnc32)CC1 [loratadine] | – | – | – | reduced | reduced | reduced

Reference: patent US20020061902A1, “Treatment method” (SCHERING CORPORATION, priority 2000, published 2002)
